Laboratory results reported in ChEMBL document CHEMBL1201862, “PubChem BioAssay data set” (2004).
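Interpolation was linear, between the two tested concentrations surrounding the appropriate level; five concentrations were tested over 48 hours in 96-well plates. GI50: concentration for 50% inhibition of growth.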 Activity calls are given as the source filed them. No stated cut-off is given here; in the data, active = GI50 up to about 1.1 µM and inactive = higher.

Assays:
Test in all cases: inhibition of tumour cell growth, NCI panel, 48 h
[1] = system: NCI-H522
[2] = system: OVCAR-5
[3] = system: SN12C
[4] = system: COLO 205
[5] = system: K562
[6] = system: SNB-19
[7] = system: Hs-578T
[8] = system: HT-29
[9] = system: RPMI-8226
[10] = system: CCRF-CEM
[11] = system: SF-295
[12] = system: OVCAR-4
[13] = system: CAKI-1
[14] = system: SW-620
[15] = system: PC-3
[16] = system: LOX IMVI
[17] = system: BT-549
[18] = system: SR
[19] = system: UACC-257
[20] = system: DU-145

Measured: GI50

COC(=O)CCC(=O)NC1c2cccc3cccc(c23)Cn2c(=O)n(C)c(=O)n21 (stereo not given)
inactive: [1] > 100 µM | [2] > 100 µM | [3] > 100 µM | [4] > 100 µM | [5] > 100 µM | [6] > 100 µM | [7] > 100 µM | [8] > 100 µM | [9] > 100 µM | [10] > 100 µM | [11] > 100 µM | [12] > 100 µM | [13] > 100 µM | [14] > 100 µM | [15] > 100 µM | [16] > 100 µM | [17] > 100 µM | [18] > 100 µM | [19] > 100 µM | [20] > 100 µM

CC1(C)CC(=O)c2c(-c3ccc(Cl)cc3)c(C#N)c(=S)n(C3OC(CO)C(O)C(O)C3O)c2C1 (stereo not given)
inactive: [1] 35 µM | [2] > 100 µM | [3] 31.7 µM | [4] 34 µM | [5] 13.6 µM | [6] 40.3 µM | [7] 25.4 µM | [8] 26.7 µM | [9] 22.5 µM | [10] 26.2 µM | [11] 38 µM | [12] 49.2 µM | [13] 78.7 µM | [14] 36.6 µM | [15] 17.2 µM | [16] 20.1 µM | [17] 45.9 µM | [18] 22 µM | [19] 28.4 µM | [20] 49.8 µM

CC1=NN(C(=O)CC(=O)Nc2ccccc2Cl)C(=O)C1/N=N/c1ccc(C(=O)O)cc1 (stereo not given)
inactive: [1] > 100 µM | [2] > 100 µM | [3] > 100 µM | [4] > 100 µM | [5] > 100 µM | [6] > 100 µM | [7] > 100 µM | [8] 7.73 µM | [9] > 100 µM | [10] > 100 µM | [11] > 100 µM | [12] > 100 µM | [13] > 100 µM | [14] > 100 µM | [15] > 100 µM | [16] 65.6 µM | [17] > 100 µM | [18] 51.1 µM | [19] > 100 µM | [20] > 100 µM

O=C(NCc1ccccc1)c1c(O)nc2ccccc2c1O
inactive: [1] > 100 µM | [2] > 100 µM | [3] > 100 µM | [4] > 100 µM | [5] > 100 µM | [6] > 100 µM | [7] 40.7 µM | [8] > 100 µM | [9] > 100 µM | [10] > 100 µM | [11] > 100 µM | [12] > 100 µM | [13] > 100 µM | [14] > 100 µM | [15] > 100 µM | [16] > 100 µM | [17] > 100 µM | [18] > 100 µM | [19] > 100 µM | [20] > 100 µM

Cc1c(C(C)C)cc(OCCO)cc1C(C)C
inactive: [1] 25.9 µM | [2] 66.4 µM | [3] 30.2 µM | [4] 34.8 µM | [5] 41.7 µM | [6] 66.2 µM | [7] 27.8 µM | [8] 26.6 µM | [9] 25.2 µM | [10] 35.4 µM | [11] 34.4 µM | [12] 33.5 µM | [13] 70.6 µM | [14] 71.9 µM | [15] 30.8 µM | [16] 24.9 µM | [17] 37.2 µM | [18] 26.7 µM | [19] 35.2 µM | [20] 73.6 µM

CC(=O)SC(C[N+](=O)[O-])c1ccc2c(c1)OCO2 (stereo not given)
inactive: [1] 5.22 µM | [2] 7.83 µM | [3] 5.73 µM | [4] 6.37 µM | [5] 3.38 µM | [6] 9.31 µM | [7] 12.9 µM | [8] 2.49 µM | [9] 1.39 µM | [10] 4.8 µM | [11] 10.9 µM | [12] 13.6 µM | [13] 6.56 µM | [14] 3.24 µM | [15] 12.7 µM | [16] 1.81 µM | [17] 6.17 µM | [18] 2.5 µM | [19] 9.1 µM | [20] 11 µM

Cn1c(=O)c(C(=O)Nc2nc(C34CC5CC(CC(C5)C3)C4)cs2)c(O)c2ccccc21
inactive: [1] 55.3 µM | [2] > 100 µM | [3] > 100 µM | [4] > 100 µM | [5] 40 µM | [6] 35.6 µM | [7] 23.8 µM | [8] > 100 µM | [9] > 100 µM | [10] 41.2 µM | [11] > 100 µM | [12] > 100 µM | [13] 73.5 µM | [14] > 100 µM | [15] > 100 µM | [16] > 100 µM | [17] 75.2 µM | [18] 38.2 µM | [19] > 100 µM | [20] > 100 µM
